Measured values taken from patent US9757404B2, “Combination comprising an omega-3 fatty acid composition and an SGLT2 inhibitor” (AstraZeneca AB, priority 2014, dated 2017).

Assays:
[1] = system: diet-induced obese mouse model of fatty liver disease and NASH (DIO-NASH); experiment: Mouse DIO-NASH model, 6 weeks treatment, hepatic pathology score (Example 3); type: in vivo, C57Bl/6J male mice; conditions: DIO-NASH mice; for NAFLD activity score, post-hoc test comparing the control group with the other groups (FIG. 1): Kruskal-Wallis p <0.01; for NAFLD activity score, post-hoc test comparing the control group with the other groups (FIG. 1) / fibrosis stage, Kruskal-Wallis test vs vehicle control (FIG. 2): p<0.05 regarded as significant; for fibrosis stage, Kruskal-Wallis test vs vehicle control (FIG. 2): p=0.4
Excerpt: Effect of SGLT-2 Inhibitors and Epanova Alone or in Combination on Metabolic Parameters and Hepatic Pathology Score in a Mouse DIO-NASH Model
Determine the effect of 6 weeks treatment with the SGLT2 inhibitors dapagliflozin, ipragliflozin and canagliflozin and the Omega-3 compound Epanova alone or in combination on NAFLD Activity Score (NAS) including fibrosis stage (post versus pre-treatment) in a diet-induced obese mouse model of fatty liver disease and NASH (DIO-NASH).
At 5 weeks of age, C57Bl/6J male mice are purchased from JanVier, France. During the acclimatization and diet-induction period, the mice are group housed five per cage under a 12:12 light dark cycle (lights on from 0400-1600 h) at controlled temperature conditions (22±1° C.; 50±10% relative humidity). Throughout the study period, the mice have ad libitum access to NASH diet (DIO-NASH) (D09100301, Research Diet) (40% fat (18% trans-fat)), 40% carbohydrates (20% fructose) and 2% cholesterol). The animals are kept on the diet for 28 weeks before experimentation. In addition, a sub-set of animals are given normal chow (Altromin 1324, Brogaarden) to be included as a lean control group (LEAN-CHOW). During post-OP recovery and study period, animals will be single-housed. BW will be recorded once daily during the study period. 24 h food and water intake will be recorded once weekly during the study period.
During the DIO-NASH diet-induction period, BW will be monitored once monthly. After 25 weeks of diet-induction, a liver biopsy will be obtained for hepatic progression of fibrosis and steatosis evaluated by histochemical analysis, and subsequently NAFLD Activity Score including fibrosis stage and optional gene expression analysis (see below). At day −6, animals are stratified into treatment groups according to levels of fibrosis (% collagen) followed by randomization based on 1) liver fibrosis and 2) BW. In addition, liver steatosis (% lipid) will be analyzed. At day −5, animals are EchoMRI scanned for body composition analysis.
Dosing volume is 5-20 ml/kg (TBD). Route of administration is per oral (PO) dosing by gavage. Dosing frequency will be once daily (QD). Day 0 is the first day of dosing. Animals are dosed with compound(s) and vehicle between 2-4 PM. Animals are dosed for 42 days. Last dose will be administered the day before termination (study day 41).
A liver pre-biopsy and terminal liver tissue from the left lateral lobe will be collected for NAS and assessment of fibrosis stage by use of clinical criteria outlined by Kleiner and colleagues (Design and validation of a histological scoring system for nonalcoholic fatty liver disease, Kleiner et al, Hepatology 41; 2005). The NAS is the sum of steatosis, lobular inflammation and hepatocellular ballooning scores:
To assess hepatic steatosis, ballooning degeneration, fibrosis and inflammation sections are stained with H&E, Sirius Red, CK18 (ballooning) and Galectin-3 (macrophages), respectively) followed by analysis with Visiomorph software (Visiopharm, Copenhagen, Denmark). Biopsy assessment of hepatic steatosis, fibrosis or inflammation will be described as percentage of total area using a protocol designed for the specific purpose.
Results are presented as mean±SEM (standard error of the mean) unless otherwise stated. Statistical evaluation of the data is carried out using Student's unpaired t-test or two-way ANOVA for comparison of LEAN-CHOW control versus DIO-NASH Vehicle. For comparison of DIO-NASH groups, one-way and two-way ANOVA are being applied where appropriate. Post-hoc analysis (Dunnett/Bonferroni) in cases with statistical significance is performed (p<0.05 considered significant).

diabetic population = conditions: cited from earlier work
[2] = system: VCU (Virginia Commonwealth University) NASH mouse model; experiment: VCU NASH mouse model, 4 weeks treatment, liver histology (Example 4); type: in vivo; conditions: VCU NASH mice, 4 weeks daily gavage; dapagliflozin 1 mg/kg/d, Epanova 600 mg/kg/d
Experimental: A further pre-clinical mouse study was carried out according to the Experimental plan described below:
Model: VCU (Virginia Commonwealth University) NASH mouse model; inbred C57bI6J/×129SI/SvlmJ given high fat, cholesterol, fructose and glucose diet for 16 weeks before starting pharmacological treatment.
Treatment: drugs will be administered by daily gavage. Gavage volume will not exceed 3 mL/Kg. vehicles will be olive oil and water. Epanova and dapagliflozin will be administered by daily gavage in one syringe.
Run-in: 16 weeks in high fat, cholesterol, fructose and glucose diet one week with vehicle gavage.
T=0 weeks: the mice will be matched based on body weight. The mice will be divided into 4 groups of 12 animals. Vehicle gavage for one week before commencing active treatment for 4 weeks.

two mouse models of NASH = experiment: Overall summary of the two pre-clinical NASH mouse studies; type: in vivo
Excerpt: We have investigated the effect of Epanova, dapagliflozin and the combination of the two components in two pre-clinical studies and a human clinical study, described in the Examples herein.
In the NASH mouse studies included in the present application, no changes in body weight, glucose or insulin levels or liver fat were observed, however the NASH mouse models used were not diabetic, but were obese and insulin resistant.

human SGLT2 (hSGLT2) = human SGLT2 (hSGLT2) (Homo sapiens, UniProt P31639); conditions: stated property, no value given; cited from earlier work
human SGLT2 (hSGLT2), sequence (P31639 whole entry): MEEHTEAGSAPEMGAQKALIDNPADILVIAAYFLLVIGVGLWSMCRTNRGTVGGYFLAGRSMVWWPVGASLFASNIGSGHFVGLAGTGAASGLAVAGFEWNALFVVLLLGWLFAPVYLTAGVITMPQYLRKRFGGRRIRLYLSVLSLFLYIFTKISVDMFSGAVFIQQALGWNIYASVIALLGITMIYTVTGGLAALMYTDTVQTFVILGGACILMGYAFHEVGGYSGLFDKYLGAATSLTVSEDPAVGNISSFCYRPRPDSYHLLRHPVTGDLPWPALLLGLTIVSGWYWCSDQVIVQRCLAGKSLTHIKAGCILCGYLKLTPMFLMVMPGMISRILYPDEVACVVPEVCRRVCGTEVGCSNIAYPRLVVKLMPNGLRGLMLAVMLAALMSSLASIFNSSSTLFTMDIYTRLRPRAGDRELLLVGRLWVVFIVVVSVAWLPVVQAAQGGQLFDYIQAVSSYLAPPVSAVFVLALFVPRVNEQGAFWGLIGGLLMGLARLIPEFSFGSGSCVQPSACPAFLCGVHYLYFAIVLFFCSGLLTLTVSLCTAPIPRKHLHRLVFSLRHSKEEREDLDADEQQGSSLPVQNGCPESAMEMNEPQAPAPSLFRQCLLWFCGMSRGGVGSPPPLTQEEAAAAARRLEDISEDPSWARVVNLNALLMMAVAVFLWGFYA

[3] = 6 weeks QD PO, dapagliflozin 1 mg/kg, Epanova 600 mg/kg, vs vehicle

Row | SMILES | NAFLD activity score, post-hoc test comparing the control group with the other groups (FIG. 1) [1] | fibrosis stage, Kruskal-Wallis test vs vehicle control (FIG. 2) [1] | liver fat content (diabetic population; diabetic population / diabetic patients) | body fat content (diabetic population; published studies (Kabir et al; Bolinder et al)) | overall effect on histology (NAFLD Activity Score, fibrosis stage) [2] | NAFLD activity scores at the end of the study (primary effect variable) [1, 3] | fibrosis stage at the end of the study (primary effect variable) [1, 3] | fibrosis, comparing baseline and end-of study biopsies ([1]; 6 weeks QD PO, post versus pre-treatment) | effect of treatment on NASH (two mouse models of NASH) | selectivity for SGLT2 relative to SGLT1 (human SGLT2 (hSGLT2))
1 | OC[C@H]1O[C@@H](c2ccc(F)c(Cc3cc4ccccc4s3)c2)[C@H](O)[C@@H](O)[C@@H]1O [Ipragliflozin, ipragliflozin] | not significant | non-significant | – | – | – | – | – | – | – | –
2 | CCOc1ccc(Cc2cc([C@@H]3O[C@H](CO)[C@@H](O)[C@H](O)[C@H]3O)ccc2Cl)cc1 [Dapagliflozin, dapagliflozin] | not significant | non-significant | tend to reduce liver fat content | reduce body fat content | no effect | No effects | No effects | reduced fibrosis | did not show any effect | High selectivity for SGLT2
3 | Cc1ccc([C@@H]2O[C@H](CO)[C@@H](O)[C@H](O)[C@H]2O)cc1Cc1ccc(-c2ccc(F)cc2)s1 [Canagliflozin, canagliflozin] | not significant | non-significant | – | – | – | – | – | – | – | –
